Experimental findings from ChEMBL document CHEMBL5058564, “EUbOPEN Chemogenomics Library 2 (Incucyte)” (2022) are described below.

SMILES strings stand for the structures.

Common to all, as to assay type: toxicity, cell-based
Data set [1] concerns HEK-293T. As to the kind of experiment: Incucyte cell viability with HEK293T. The settings on record: human, 10 µM, compound concentration 10 uM.
Data set [2] relates to U2OS. The data set can be described thus: Incucyte cell viability with U2OS. The conditions noted are these: human, 10 µM, compound concentration 10 uM.
Data set [3] deals with Fibroblast. The data set can be described thus: Incucyte cell viability with human fibroblast. The conditions noted are these: 10 µM, compound concentration 10 uM.
Setting [4] is: 0 h, replicate number 2, timepoint 0 hours.
Where [5] appears, read: 6 h, replicate number 2, timepoint 6 hours.
[6] abbreviates: 18 h, replicate number 1, timepoint 18 hours.
Setting [7] is: 18 h, replicate number 2, timepoint 18 hours.
Setting [8] is: 24 h, replicate number 1, timepoint 24 hours.
Where [9] appears, read: 24 h, replicate number 2, timepoint 24 hours.
Where [10] appears, read: 0 h, replicate number 1, timepoint 0 hours.
[11] abbreviates: 6 h, replicate number 1, timepoint 6 hours.
Setting [12] is: 12 h, replicate number 1, timepoint 12 hours.
[13] abbreviates: 12 h, replicate number 2, timepoint 12 hours.
Note: unitless GR value; below 1 slowed growth and below 0 cell loss.

As to `Cc1cccc(S(=O)(=O)N(C)[C@H](C)CCN2CCC(C)CC2)c1.Cl`, the “Growth Rate” value in data set [1] (setting [4]) is 0.65; in data set [1] (setting [5]) it was 0.92; in data set [1] (setting [6]) it was 0.84; in data set [1] (setting [7]), 0.87; in data set [1] (setting [8]) it was 0.69; in data set [1] (setting [9]), 0.66. Further, the “Growth Rate” value is 0.29 in data set [2] (setting [10]); -0.95 in data set [2] (setting [4]); 0.95 in data set [2] (setting [5]); 0.97 in data set [2] (setting [7]); 0.08 in data set [3] (setting [10]); 0.83 in data set [3] (setting [11]). The “Growth Rate” value in data set [3] (setting [5]) worked out at 0.52.

On to `Cn1cc(-c2ccc3occ(-c4cccc(-c5ccncc5)c4)c3n2)cn1`, for which the “Growth Rate” value in data set [1] (setting [11]) is on record as -0.87; in data set [1] (setting [5]), -0.61; in data set [1] (setting [12]), -0.67; in data set [1] (setting [13]), -0.44; in data set [1] (setting [6]), -0.56; in data set [1] (setting [7]) it was -0.33. For the same compound, the “Growth Rate” value in data set [1] (setting [8]) was -0.43; in data set [1] (setting [9]) it was -0.32; in data set [2] (setting [10]) it was -0.88; in data set [2] (setting [11]) it was -0.02; in data set [2] (setting [5]), -0.14; in data set [2] (setting [12]), -0.03. Moreover, the “Growth Rate” value in data set [2] (setting [13]) is on record as -0.05; in data set [2] (setting [6]) it was -0.03; in data set [2] (setting [7]), 0.09; in data set [2] (setting [8]), -0.02; in data set [2] (setting [9]), 0.09; in data set [3] (setting [11]), -0.96. Further, the “Growth Rate” value in data set [3] (setting [12]) is given as -0.95; in data set [3] (setting [13]) it was -0.62; in data set [3] (setting [6]), -0.87; in data set [3] (setting [7]) it was -0.23; in data set [3] (setting [8]), -0.84; in data set [3] (setting [9]), 0.02.

Turning to `Cc1nn(C)c(C)c1-c1cccc2c1CC[C@H](N(C)C)C2`, the “Growth Rate” value was 0.25 in data set [1] (setting [4]); 0.95 in data set [1] (setting [11]); 0.97 in data set [1] (setting [12]); 0.97 in data set [1] (setting [6]); 0.9 in data set [1] (setting [8]); -0.3 in data set [2] (setting [10]). Besides, the “Growth Rate” value was 0.01 in data set [2] (setting [4]); 0.52 in data set [2] (setting [11]); 0.91 in data set [2] (setting [5]); 0.78 in data set [2] (setting [12]); 0.8 in data set [2] (setting [13]); 0.69 in data set [2] (setting [6]). In addition, the “Growth Rate” value was 0.97 in data set [2] (setting [7]); 0.86 in data set [2] (setting [8]); 0.99 in data set [2] (setting [9]); 0.48 in data set [3] (setting [10]); -0.09 in data set [3] (setting [4]); 0.75 in data set [3] (setting [12]). Moreover, the “Growth Rate” value was 0.49 in data set [3] (setting [6]) and 0.61 in data set [3] (setting [8]).

Take `CC[S+]([O-])c1nc(-c2cccc(OCc3ccccc3)c2)cc(C(F)(F)F)n1` (stereo not drawn): the “Growth Rate” value is reported as -0.65 in data set [1] (setting [11]); -0.82 in data set [1] (setting [5]); -0.45 in data set [1] (setting [12]); -0.65 in data set [1] (setting [13]); -0.27 in data set [1] (setting [6]); -0.43 in data set [1] (setting [7]). The “Growth Rate” value in data set [1] (setting [8]) was -0.13; in data set [1] (setting [9]) it was -0.24; in data set [2] (setting [4]), -1; in data set [2] (setting [11]) it was -0.91; in data set [2] (setting [5]), -0.17; in data set [2] (setting [12]), -0.48. Besides, the “Growth Rate” value in data set [2] (setting [13]) is on record as -0.16; in data set [2] (setting [6]), -0.19; in data set [2] (setting [7]) it was 0.03; in data set [2] (setting [8]), -0.09; in data set [2] (setting [9]), 0.16; in data set [3] (setting [11]), -0.79. The “Growth Rate” value in data set [3] (setting [5]) is given as -0.73; in data set [3] (setting [12]), -0.65; in data set [3] (setting [13]) it was -0.52; in data set [3] (setting [6]), -0.48; in data set [3] (setting [8]) it was -0.4; in data set [3] (setting [9]) it was -0.5.

As for `CCCN(CCc1cccs1)[C@H]1CCc2c(O)cccc2C1` [ROTIGOTINE], the “Growth Rate” value is 0.77 in data set [1] (setting [10]); -1 in data set [1] (setting [4]); 0.99 in data set [1] (setting [8]); 0.77 in data set [2] (setting [10]); 0.95 in data set [2] (setting [11]); 0.96 in data set [2] (setting [12]). The “Growth Rate” value is -0.39 in data set [3] (setting [4]), 0.1 in data set [3] (setting [11]) and 0.84 in data set [3] (setting [12]).

Turning to `CN[C@@H](C)C(=O)N[C@H]1CCCC[C@H]2CC[C@@H](C(=O)N[C@@H](c3ccccc3)c3cn(CCCCc4ccc(CCCCn5cc([C@@H](NC(=O)[C@@H]6CC[C@@H]7CCCC[C@H](NC(=O)[C@H](C)NC)C(=O)N76)c6ccccc6)nn5)cc4)nn3)N2C1=O`, the “Growth Rate” value in data set [1] (setting [10]) is 0.2; in data set [1] (setting [4]) it was 0.49; in data set [1] (setting [11]), 0.5; in data set [1] (setting [5]), 0.74; in data set [1] (setting [12]) it was 0.73; in data set [1] (setting [13]) it was 0.75. In addition, the “Growth Rate” value is given as 0.93 in data set [1] (setting [6]); 0.8 in data set [1] (setting [7]); 0.66 in data set [1] (setting [8]); 0.84 in data set [1] (setting [9]); -0.18 in data set [2] (setting [10]); 0.83 in data set [2] (setting [11]). The “Growth Rate” value in data set [2] (setting [6]) is reported as 0.97; in data set [2] (setting [8]), 1; in data set [3] (setting [4]), 0.01; in data set [3] (setting [11]), 0.17; in data set [3] (setting [12]) it was 0.57; in data set [3] (setting [13]) it was 0.75. The entries for the “Growth Rate” value in data set [3] (setting [7]), in data set [3] (setting [8]) and in data set [3] (setting [9]) were 0.88, 0.71 and 0.81, respectively.

As to `COc1c(C)cc(NC(=O)c2nn(Cc3ccc(F)cc3)c3c2CN(C(=O)c2ccc[nH]2)C[C@]3(C)C(N)=O)cc1C`, the “Growth Rate” value in data set [1] (setting [10]) is given as 0.79; in data set [1] (setting [11]), 0.35; in data set [1] (setting [12]) it was 0.13; in data set [1] (setting [6]), 0.11; in data set [1] (setting [8]), 0.15; in data set [2] (setting [10]), -0.69. Besides, the “Growth Rate” value is recorded as -0.16 in data set [2] (setting [4]); 0.56 in data set [2] (setting [11]); 0.73 in data set [2] (setting [5]); 0.56 in data set [2] (setting [12]); 0.68 in data set [2] (setting [13]); 0.61 in data set [2] (setting [6]). Besides, the “Growth Rate” value is recorded as 0.66 in data set [2] (setting [7]); 0.61 in data set [2] (setting [8]); 0.67 in data set [2] (setting [9]); 0.8 in data set [3] (setting [10]); 0.51 in data set [3] (setting [4]); -0.71 in data set [3] (setting [11]). Moreover, the “Growth Rate” value was 0.46 in data set [3] (setting [5]); -0.33 in data set [3] (setting [12]); 0.15 in data set [3] (setting [13]); -0.18 in data set [3] (setting [6]); 0.32 in data set [3] (setting [7]); -0.31 in data set [3] (setting [8]). Besides, the “Growth Rate” value in data set [3] (setting [9]) is listed as 0.29.

For `Oc1c(CN2CCN(c3ccccn3)CC2)cc(Cl)c2cccnc12`, the “Growth Rate” value in data set [1] (setting [4]) was -1; in data set [1] (setting [11]), -0.48; in data set [1] (setting [12]) it was -0.03; in data set [1] (setting [6]), 0.11; in data set [1] (setting [8]), 0.17; in data set [2] (setting [10]), 0.03. In addition, the “Growth Rate” value in data set [2] (setting [4]) was -0.6; in data set [2] (setting [11]), 0.19; in data set [2] (setting [5]), -0.14; in data set [2] (setting [12]), 0.01; in data set [2] (setting [13]), 0.21; in data set [2] (setting [6]) it was -0.04. Moreover, the “Growth Rate” value in data set [2] (setting [7]) is recorded as 0.1; in data set [2] (setting [8]), -0.07; in data set [2] (setting [9]), 0.08; in data set [3] (setting [8]), 0.65; in data set [3] (setting [9]), 0.89.

`CC(C)OC(=O)N1CCC(Oc2ncnc3c2cnn3-c2ccc(S(C)(=O)=O)cc2F)CC1`: the “Growth Rate” value in data set [1] (setting [11]) was 0.81; in data set [1] (setting [12]) it was 0.82; in data set [1] (setting [6]) it was 0.98; in data set [2] (setting [4]), -1; in data set [2] (setting [5]), 0.7; in data set [2] (setting [9]), 0.97. Further, the “Growth Rate” value in data set [3] (setting [10]) is on record as 0.77; in data set [3] (setting [4]) it was -0.13; in data set [3] (setting [11]), 0.15; in data set [3] (setting [12]), 0.04; in data set [3] (setting [13]), 0.61; in data set [3] (setting [6]), 0.38. Further, the “Growth Rate” value in data set [3] (setting [7]) is 0.58; in data set [3] (setting [8]) it was 0.47; in data set [3] (setting [9]) it was 0.69.
